{
  "source": "patent US20250281629A1",
  "about": "“COMPOSITIONS AND METHODS FOR ANTI-PHOSPHOCHOLINE ACTIVE IMMUNOTHERAPY” (Duke University, priority 2022, published 2025)",
  "test_system": "B1a cells (CD19^+CD5^+)",
  "experiment": "Colon B cell populations by flow cytometry: B1a cells",
  "assay_type": "in vivo, mouse",
  "details": "vs other DSS-administered mice",
  "experimental": "Determination of Colon B cell Populations. Small colon samples collected from either after immunization only or after colitis experiments were collected at experimental endpoints. Colon samples were flushed with PBS and then digested in a solution containing 200 U/mL collagenase from Clostridium histolyticum (Sigma, C5138) and 0.1 mg/mL DNase I (Sigma, 10104159001) in 1×PBS. Digestion occurred at 37° C. while shaking for a total of 30 minutes. The solutions were then filtered to isolate cells, spun down, and transferred into ice cold flow buffer (2% heat-inactivated FBS in 1×PBS). The cells were blocked with mouse BD Fc Block (Clone: 2.4G2) (BD Biosciences, 553142) for 30 min on ice and then washed in flow buffer and stained with antibodies against CD5-APC (Clone: 53-7.3) (BioLegend, 100626), CD19-APC/Cy7 (Clone: 6D5) (BioLegend, 115530), B220-PE (Clone: RA3-6B2) (BioLegend, […]), and CD138-PE/Cy7 (Clone: 281-2) (BioLegend, […]) in flow buffer for 30 min on ice. Cells were washed and DAPI was added. Flow cytometry was then conducted on a BD FACSCanto II cytometer and the results were analyzed using FlowJo software.",
  "note": "Where no end group is shown, it is not given here.",
  "data": [
    {"substance": "(C11H22NO6P)n-CCCCSGSG-QQKFQFQFEQQ-NH2 (CCCCSGSGQQKFQFQFEQQ-NH2; not fully specified; cysteine pairing not given here; also: phosphorylcholine groups (C11H22NO6P) n=1-4, attachment not placed) [PCM-Q11, linear multi-PC conjugate]", "values": [
      {"measurement": "colonic B1a cells after chronic DSS colitis", "result": "decrease in B1a cells"}
    ]}
  ]
}
